Where two headings read alike, the source gives them in different places. One block for each molecule: values may come before it.
Tests used:
human PBMC cells = assay: cytokine/chemokine gene expression (TaqMan) in human PBMC; conditions: 4 h; for fold induction at 1 µM / fold induction at 0.01 µM / fold induction at 0.03 µM / fold induction at 0.1 µM: Homo sapiens, PBMC
NFκB = NFκB luciferase reporter gene assay in HeLa-NFκB luciferase reporter cell line; assay type: cell-based; conditions: 16 h; for EC50: 37 °C, luciferase/CTG normalized, read-out: NFκB-luc HeLa cells EC50
Procedure: The PKC activator compounds were evaluated for their effect on NFκB expression using a luciferase reporter gene expression system. (The indicators “K-101,” “K101” and “K-101A” may be used interchangeably in this disclosure and appended figures).
A HeLa-NFκB luciferase reporter cell line (Wuxi Biology) was used to assess a group of PKC activator compounds for their ability to activate NFκB-driven transcription. Two sets of cells at 20000 cells/well were plated, grown overnight, and then treated for 16 h at 37 °C with DMSO, 6 doses of each compound, or TNF-α (final concentration of 10 ng/mL, positive control) in triplicates. One set of cells was assayed for luciferase activity (Promega, Cat #E1500) and the other set was assayed to determine the number of viable cells (for cell number normalization) using CellTiter-Glo (CTG) kit (Promega, Cat #G7570) according to manufacture's procedures. Normalized data (luciferase value/CTG value) were analyzed using GraphPad Prism5 to calculate EC50 for each compound (see Table 3).

[1] = 0.03 μM, vs DMSO, 240 min, 0.03 µM
[2] = 0.10 μM, vs DMSO, 240 min, 0.1 µM

- IL-6 induction compared to DMSO control (human PBMC cells): > 400 fold
Molecule: CCOCc1nc2c(N)nc3ccccc3c2n1CC(C)(C)O [Resiquimod, reference compound]
- IL-12p40 expression (in words) (human PBMC cells): highly induced
- ISG15 expression (in words) (human PBMC cells): highly induced
- MX1 expression (in words) (human PBMC cells): highly induced
- OAS1 expression (in words) (human PBMC cells): highly induced
- fold induction at 1 µM (human PBMC cells; read-out: CCL2 gene relative expression): 3.73
- fold induction at 1 µM (human PBMC cells; read-out: GM-CSF gene relative expression): 8.79
- fold induction at 1 µM (human PBMC cells; read-out: IFN-α gene relative expression): 1.47
- fold induction at 1 µM (human PBMC cells; read-out: IFNγ gene relative expression): 1.28
- fold induction at 1 µM (human PBMC cells; read-out: IL-1β gene relative expression): 102
- fold induction at 1 µM (human PBMC cells; read-out: IL-2 gene relative expression): 1.21
- fold induction at 1 µM (human PBMC cells; read-out: IL-6 gene relative expression): 487
- fold induction at 1 µM (human PBMC cells; read-out: IL-8 gene relative expression): 9.87
- fold induction at 1 µM (human PBMC cells; read-out: IL-10 gene relative expression): 5.65
- fold induction at 1 µM (human PBMC cells; read-out: IL-12p40 gene relative expression): 786
- fold induction at 1 µM (human PBMC cells; read-out: IL-12p70 gene relative expression): 2.48
- fold induction at 1 µM (human PBMC cells; read-out: IL-13 gene relative expression): 3.52
- fold induction at 1 µM (human PBMC cells; read-out: IL-18 gene relative expression): 1.33
- fold induction at 1 µM (human PBMC cells; read-out: ISG15 gene relative expression): 14.8
- fold induction at 1 µM (human PBMC cells; read-out: MIP1a (CCL3) gene relative expression): 47.7
- fold induction at 1 µM (human PBMC cells; read-out: MX1 gene relative expression): 17
- fold induction at 1 µM (human PBMC cells; read-out: OAS1 gene relative expression): 12.7
- fold induction at 1 µM (human PBMC cells; read-out: TNF-α gene relative expression): 7.38

Molecule: CC1=C[C@H]2[C@@]3(O)[C@H](C)C[C@]4(OC(=O)[C@@H](N)Cc5ccccc5)[C@H]([C@@H]3C=C(CO)C[C@]2(O)C1=O)C4(C)C
- EC50 (NFκB; Homo sapiens, HeLa): 200 to 600 nM

Molecule: TNF-α [reference compound]
- activation of NFκB luciferase reporter gene expression above DMSO control (NFκB; 10 ng/mL): ~10 fold

Molecule: CC1=C[C@H]2[C@@]3(O)[C@H](C)C[C@]4(OC(=O)C(N)CCCCCCc5ccccc5)[C@H]([C@@H]3C=C(CO)C[C@]2(O)C1=O)C4(C)C (stereo partly drawn)
- EC50 (NFκB): 1 to 10 nM
- IL-2 gene relative expression (human PBMC cells; [1]): 3.59
- IL-13 gene relative expression (human PBMC cells; [1]): 5.87
- IL-18 gene relative expression (human PBMC cells; [1]): 0.19
- TNF-α gene relative expression (human PBMC cells; [1]): 2.91
- CCL2 gene relative expression (human PBMC cells; [2]): 0.40
- GM-CSF gene relative expression (human PBMC cells; [2]): 21.01
- IFNγ gene relative expression (human PBMC cells; [2]): 11.33
- IL-6 gene relative expression (human PBMC cells; [2]): 6.15
- IL-10 gene relative expression (human PBMC cells; [2]): 0.12
- IL-13 gene relative expression (human PBMC cells; [2]): 121.59
- MIP1a (CCL3) gene relative expression (human PBMC cells; [2]): 4.95
- fold induction at 0.01 µM (human PBMC cells; read-out: CCL2 gene relative expression, 0.01 μM, 4 h, vs DMSO): 1.81
- fold induction at 0.03 µM (human PBMC cells; read-out: CCL2 gene relative expression, 0.03 μM, 4 h, vs DMSO): 6.53
- fold induction at 0.01 µM (human PBMC cells; read-out: GM-CSF gene relative expression, 0.01 μM, 4 h, vs DMSO): 1
- fold induction at 0.03 µM (human PBMC cells; read-out: GM-CSF gene relative expression, 0.03 μM, 4 h, vs DMSO): 1.88
- fold induction at 0.01 µM (human PBMC cells; read-out: IFN-α gene relative expression, 0.01 μM, 4 h, vs DMSO): 0.73
- fold induction at 0.03 µM (human PBMC cells; read-out: IFN-α gene relative expression, 0.03 μM, 4 h, vs DMSO): 1.21
- fold induction at 0.1 µM (human PBMC cells; read-out: IFN-α gene relative expression, 0.10 μM, 4 h, vs DMSO): 0.8
- fold induction at 0.01 µM (human PBMC cells; read-out: IFNγ gene relative expression, 0.01 μM, 4 h, vs DMSO): 1.46
- fold induction at 0.03 µM (human PBMC cells; read-out: IFNγ gene relative expression, 0.03 μM, 4 h, vs DMSO): 1.49
- fold induction at 0.01 µM (human PBMC cells; read-out: IL-1β gene relative expression, 0.01 μM, 4 h, vs DMSO): 0.38
- fold induction at 0.03 µM (human PBMC cells; read-out: IL-1β gene relative expression, 0.03 μM, 4 h, vs DMSO): 0.94
- fold induction at 0.1 µM (human PBMC cells; read-out: IL-1β gene relative expression, 0.10 μM, 4 h, vs DMSO): 3
- fold induction at 0.01 µM (human PBMC cells; read-out: IL-2 gene relative expression, 0.01 μM, 4 h, vs DMSO): 1.32
- fold induction at 0.1 µM (human PBMC cells; read-out: IL-2 gene relative expression, 0.10 μM, 4 h, vs DMSO): 4.98
- fold induction at 0.03 µM (human PBMC cells; read-out: IL-4 gene relative expression, 0.03 μM, 4 h, vs DMSO): 1.19
- fold induction at 0.1 µM (human PBMC cells; read-out: IL-4 gene relative expression, 0.10 μM, 4 h, vs DMSO): 2.78
- fold induction at 0.01 µM (human PBMC cells; read-out: IL-6 gene relative expression, 0.01 μM, 4 h, vs DMSO): 0.57
- fold induction at 0.03 µM (human PBMC cells; read-out: IL-6 gene relative expression, 0.03 μM, 4 h, vs DMSO): 1.23
- fold induction at 0.01 µM (human PBMC cells; read-out: IL-8 gene relative expression, 0.01 μM, 4 h, vs DMSO): 0.44
- fold induction at 0.03 µM (human PBMC cells; read-out: IL-8 gene relative expression, 0.03 μM, 4 h, vs DMSO): 0.66
- fold induction at 0.1 µM (human PBMC cells; read-out: IL-8 gene relative expression, 0.10 μM, 4 h, vs DMSO): 0.44
- fold induction at 0.01 µM (human PBMC cells; read-out: IL-10 gene relative expression, 0.01 μM, 4 h, vs DMSO): 1.59
- fold induction at 0.03 µM (human PBMC cells; read-out: IL-10 gene relative expression, 0.03 μM, 4 h, vs DMSO): 0.86
- fold induction at 0.01 µM (human PBMC cells; read-out: IL-12p40 gene relative expression, 0.01 μM, 4 h, vs DMSO): 0.34
- fold induction at 0.03 µM (human PBMC cells; read-out: IL-12p40 gene relative expression, 0.03 μM, 4 h, vs DMSO): 0.38
- fold induction at 0.01 µM (human PBMC cells; read-out: IL-12p70 gene relative expression, 0.01 μM, 4 h, vs DMSO): 1.05
- fold induction at 0.03 µM (human PBMC cells; read-out: IL-12p70 gene relative expression, 0.03 μM, 4 h, vs DMSO): 0.96
- fold induction at 0.1 µM (human PBMC cells; read-out: IL-12p70 gene relative expression, 0.10 μM, 4 h, vs DMSO): 0.74
- fold induction at 0.01 µM (human PBMC cells; read-out: IL-13 gene relative expression, 0.01 μM, 4 h, vs DMSO): 0.37
- fold induction at 0.01 µM (human PBMC cells; read-out: IL-18 gene relative expression, 0.01 μM, 4 h, vs DMSO): 0.63
- fold induction at 0.1 µM (human PBMC cells; read-out: IL-18 gene relative expression, 0.10 μM, 4 h, vs DMSO): 0.05
- fold induction at 0.01 µM (human PBMC cells; read-out: ISG15 gene relative expression, 0.01 μM, 4 h, vs DMSO): 0.94
- fold induction at 0.03 µM (human PBMC cells; read-out: ISG15 gene relative expression, 0.03 μM, 4 h, vs DMSO): 0.97
- fold induction at 0.1 µM (human PBMC cells; read-out: ISG15 gene relative expression, 0.10 μM, 4 h, vs DMSO): 1.57
- fold induction at 0.01 µM (human PBMC cells; read-out: MIP1a (CCL3) gene relative expression, 0.01 μM, 4 h, vs DMSO): 1.29
- fold induction at 0.03 µM (human PBMC cells; read-out: MIP1a (CCL3) gene relative expression, 0.03 μM, 4 h, vs DMSO): 1.67
- fold induction at 0.01 µM (human PBMC cells; read-out: MX1 gene relative expression, 0.01 μM, 4 h, vs DMSO): 0.77
- fold induction at 0.03 µM (human PBMC cells; read-out: MX1 gene relative expression, 0.03 μM, 4 h, vs DMSO): 0.65
- fold induction at 0.1 µM (human PBMC cells; read-out: MX1 gene relative expression, 0.10 μM, 4 h, vs DMSO): 1.06
- fold induction at 0.01 µM (human PBMC cells; read-out: OAS1 gene relative expression, 0.01 μM, 4 h, vs DMSO): 0.85
- fold induction at 0.03 µM (human PBMC cells; read-out: OAS1 gene relative expression, 0.03 μM, 4 h, vs DMSO): 0.55
- fold induction at 0.1 µM (human PBMC cells; read-out: OAS1 gene relative expression, 0.10 μM, 4 h, vs DMSO): 0.71
- fold induction at 0.01 µM (human PBMC cells; read-out: TNF-α gene relative expression, 0.01 μM, 4 h, vs DMSO): 1.34
- fold induction at 0.1 µM (human PBMC cells; read-out: TNF-α gene relative expression, 0.10 μM, 4 h, vs DMSO): 6.52
